Read-outs that look alike come from different tables or passages of the source.
Columns and labels:
[1] = logP by HPLC on reversed-phase columns (C18), EEC Directive 79/831 Annex V.A8; type: physicochemical
Procedure: The logP values were measured in accordance with EEC Directive 79/831 Annex V.A8 by HPLC (High Performance Liquid Chromatography) on reversed-phase columns (C18), using the method below: ^[a] The determination was carried out in the acidic range at pH 2.3 using the mobile phases 0.1% aqueous phosphoric acid and acetonitrile linear gradient from 10% acetonitrile to 95% acetonitrile. ^[b] The LC-MS determination in the acidic range was carried out at pH 2.7 using the mobile phases 0.1% aqueous formic acid and acetonitrile (comprising 0.1% formic acid) linear gradient from 10% acetonitrile to 95% acetonitrile ^[c] The LC-MS determination in the neutral range was carried out at pH 7.8 using the mobile phases 0.001 molar ammonium bicarbonate solution and acetonitrile linear gradient from 10% acetonitrile to 95% acetonitrile. Calibration was carried out using unbranched alkan-2-ones (having 3 to 16 carbon atoms) with known logP values (determination of the logP values by the retention times using linear interpolation between two successive alkanones).

Pyricularia oryzae = type: in vivo; details: active compound concentration of 250 ppm; rice, protective; evaluation 7 days after inoculation
Cochliobolus miyabeanus = assay: Cochliobolus test (rice)/protective; details: active compound concentration of 250 ppm, protective, evaluation 4 days after inoculation
Procedure: • Solvent: 28.5 parts by weight of acetone • Emulsifier: 1.5 parts by weight of alkylaryl polyglycol ether
One day after the treatment, the plants are inoculated with an aqueous spore suspension of Cochliobolus miyabeanus. The plants are then placed in a greenhouse at 100% relative atmospheric humidity and 25° C.
Evaluation is carried out 4 days after the inoculation.

[2] = reversed-phase HPLC column (C18), LC-MS, acidic range pH 2.7, 0.1% aqueous formic acid and acetonitrile, read-out: logP(HCO2H)

Cc1cc(Oc2cc(-c3ccccc3)ns2)c(C)cc1N [2,5-dimethyl-4-[(3-phenylisothiazol-5-yl)oxy]aniline]
chromatographic logP ([1]; pH 2.7): 3.6

Clc1snc(-c2ccccc2)c1Cl [4,5-dichloro-3-phenylisothiazole]
chromatographic logP ([1]; pH 2.7): 4.44

Cc1cc(Oc2snc(-c3ccccc3)c2Br)c(Cl)cc1N [4-[(4-bromo-3-phenylisothiazol-5-yl)oxy]-5-chloro-2-methylaniline]
chromatographic logP ([1]; pH 2.7): 4.41

Cc1cc(Oc2snc(-c3ccccc3)c2Cl)c(C)cc1N [4-[(4-chloro-3-phenylisothiazol-5-yl)oxy]-2,5-dimethylaniline]
chromatographic logP ([1]; pH 2.7): 4.22

Nc1snc(-c2ccccc2)c1Br [4-bromo-3-phenylisothiazol-5-amine]
chromatographic logP [1, 2]: 2.26

Clc1snc(-c2ccccc2)c1Br [4-bromo-5-chloro-3-phenylisothiazole]
chromatographic logP [1, 2]: 4.41

Nc1snc(-c2ccccc2)c1Cl [4-chloro-3-phenylisothiazol-5-amine]
chromatographic logP [1, 2]: 2.21

Cc1cc(Oc2snc(Cc3ccc(Cl)cc3)c2C#N)c(C)cc1N [5-(4-amino-2,5-dimethylphenoxy)-3-(4-chlorobenzyl)isothiazole-4-carbonitrile]
chromatographic logP ([1]; pH 2.7): 4.03

N#Cc1c(Cc2ccc(Cl)cc2)nsc1N [5-amino-3-(4-chlorobenzyl)isothiazole-4-carbonitrile]
chromatographic logP [1, 2]: 2.4

CC(C)(C)c1nsc(N)c1C#N [5-amino-3-tert-butylisothiazole-4-carbonitrile]
chromatographic logP [1, 2]: 2.4

N#Cc1c(Cc2ccc(Cl)cc2)nsc1Cl [5-chloro-3-(4-chlorobenzyl)isothiazole-4-carbonitrile]
chromatographic logP ([1]; pH 2.7): 3.87

Clc1cc(-c2ccccc2)ns1 [5-chloro-3-phenylisothiazole]
chromatographic logP ([1]; pH 2.7): 3.82

CCCN(C)/C=N/c1cc(C)c(Oc2snc(C(C)(C)C)c2C#N)cc1C [No. 4, N′-{4-[(3-tert-butyl-4-cyano-1,2-thiazol-5-yl)oxy]-2,5-dimethylphenyl}-N-methyl-N-propylimidoformamide]
chromatographic logP ([1]; pH 2.7): 2.19

CCN(C)/C=N/c1cc(C)c(Oc2snc(Cc3ccc(Cl)cc3)c2C#N)cc1C [No. 27, N′-(4-{[3-(4-chlorobenzyl)-4-cyano-1,2-thiazol-5-yl]oxy}-2,5-dimethylphenyl)-N-ethyl-N-methylimidoformamide]
chromatographic logP ([1]; pH 2.7): 2.39

CCN(C)/C=N/c1cc(C)c(Oc2cc(-c3ccccc3)ns2)cc1C [No. 43, N′-{2,5-dimethyl-4-[(3-phenyl-1,2-thiazol-5-yl)oxy]phenyl}-N-ethyl-N-methylimidoformamide]
chromatographic logP ([1]; pH 2.7): 2.11

CCN(C)/C=N/c1cc(C)c(Oc2snc(-c3ccccc3)c2Cl)cc1C [No. 48, N′-{4-[(4-chloro-3-phenyl-1,2-thiazol-5-yl)oxy]-2,5-dimethylphenyl}-N-ethyl-N-methylimidoformamide]
chromatographic logP ([1]; pH 2.7): 2.25

CCN(C)/C=N/c1cc(Cl)c(Oc2snc(-c3ccccc3)c2Br)cc1C [No. 54, N′-{4-[(4-bromo-3-phenyl-1,2-thiazol-5-yl)oxy]-5-chloro-2-methylphenyl}-N-ethyl-N-methylimidoformamide]
chromatographic logP ([1]; pH 2.7): 2.26

CCN(C)C=Nc1cc(C)c(Oc2snc(C(C)(C)C)c2C#N)cc1C [compound 6]
efficacy (Pyricularia oryzae): ≥ 80% | efficacy (Cochliobolus miyabeanus): ≥ 80%

From patent US8138211B2, “Isothiazolyloxyphenylamidines and their use as fungicides” (Bayer Cropscience AG, priority 2009, dated 2012)
